Reference: patent US20060019971A1, “Treatment of cardiovascular disease with inhibitors of p38 kinase” (priority 2003, published 2006)

B1: CRP: purified human CRP (Calbiochem), stimulus applied at 10 μg/ml to HPBMCs (protein, UniProt P02741 19-224, looked up)
C-reactive protein: QTDMSRKAFVFPKESDTSYVSLKAPLTKPLKAFTVCLHFYTELSSTRGYSIFSYATKRQDNEILIFWSKDIGYSFTVGGSEILFEVPEVTVAPVHICTSWESASGIVEFWVDGKPRVRKSLKKGYTVGAEASIILGQEQDSFGGNFEGSQSLVGDIGNVNMWDFVLSPDEINTIYLGGPFSPNVLNWRALKYEVQGEVFTKPQLWP

What follows are molecules tested against T1, p38 MAP kinase (Homo sapiens, UniProt Q16539) (assay: p38 MAP kinase phosphorylation assay (similar to Kumar)). Conditions: assay similar to the phosphorylation assay (Kumar).
T1 construct: expressed in transfected cells; kinase immunoprecipitated from lysates
T1 sequence (Q16539 whole entry): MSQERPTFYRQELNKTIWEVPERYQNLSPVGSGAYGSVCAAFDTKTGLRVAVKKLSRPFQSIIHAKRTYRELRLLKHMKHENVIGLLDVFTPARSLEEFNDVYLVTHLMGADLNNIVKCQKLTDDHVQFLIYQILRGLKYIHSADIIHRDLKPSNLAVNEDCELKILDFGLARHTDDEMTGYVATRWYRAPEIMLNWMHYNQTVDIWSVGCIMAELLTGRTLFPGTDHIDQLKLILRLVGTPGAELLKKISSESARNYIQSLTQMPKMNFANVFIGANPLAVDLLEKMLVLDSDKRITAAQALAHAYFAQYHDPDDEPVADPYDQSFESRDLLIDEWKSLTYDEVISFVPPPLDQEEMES
Type: biochemical
Method: Alternative assays involving in vitro analysis of potential inhibitors include those where cells (HeLa) transfected with DNA coding for relevant kinases can be activated with substances such as sorbitol, IL-1, TNF, or PMA (phorbol myristate acetate). After immunoprecipitation of cell lysates, equal aliquots of immune complexes of the kinases are pre-incubated for an adequate time with a specific concentration of the potential inhibitor followed by addition of kinase substrate buffer mix containing labeled ATP and GST-ATF2 or MBP. After incubation, kinase reactions are ceased by the addition of SDS loading buffer. Phosphorylated substrate is resolved through SDS-PAGE and visualized and quantitated in a phosphorimager. Both p38 regulation, in terms of phosphorylation, and IC50 values can be determined by quantitation. See, for example Kumar,S., McDonnell, P., Gum, R., Hand, A., Lee, J., and Young, P. (1997) Biochem. Biophys. Res. Commun. 235, 533-538.

Row | Molecule | p38 MAP kinase activity
1 | Cc1[nH]c2cc(Cl)c(C(=O)N3CCC(Cc4ccc(F)cc4)CC3)cc2c1C(=O)C(=O)N1CCN(C)CC1 [Compound 169] | exhibit p38 MAP kinase activity
2 | COc1cc2[nH]cc(C(=O)C(=O)N(C)C)c2cc1C(=O)N1CC(C)N(Cc2ccc(F)cc2)CC1C (centres unmarked) [Compound 154] | exhibit p38 MAP kinase activity
3 | COCn1cc(C(=O)C(=O)N(C)C)c2cc(C(=O)N3C[C@H](C)N(Cc4ccc(F)cc4)C[C@H]3C)c(OC)cc21 [Compound 92] | exhibit p38 MAP kinase activity
4 | COc1cc2c(cc1C(=O)N1C[C@H](C)N(Cc3ccc(F)cc3)C[C@@H]1C)c(C(=O)C(=O)N(C)C)cn2C [Compound 15] | exhibit p38 MAP kinase activity
5 | COc1cc2c(cc1C(=O)N1CCC(Cc3ccc(F)cc3)CC1)c(C(=O)C(=O)N1CCN(C)CC1)cn2C [Compound 3] | exhibit p38 MAP kinase activity
6 | COc1cc2[nH]cc(C(=O)C(=O)N3CCOCC3)c2cc1C(=O)N1CCC(Cc2ccc(F)cc2)CC1 [Compound 141] | exhibit p38 MAP kinase activity
7 | Cn1cc(C(=O)C(=O)N2CCCC2)c2cc(C(=O)N3CCC(Cc4ccc(F)cc4)CC3)c(Cl)cc21 [Compound 84] | exhibit p38 MAP kinase activity
8 | COc1cc2c(cc1C(=O)N1CCC(Cc3ccc(F)cc3)CC1)c(C(=O)C(=O)O)cn2C [Compound 2] | exhibit p38 MAP kinase activity
9 | COc1cc2c(cc1C(=O)N1CCC(=Cc3ccc(F)cc3)CC1)c(C(=O)C(=O)N(C)C)cn2C [Compound 67] | exhibit p38 MAP kinase activity
10 | C[C@@H]1CN(Cc2ccc(F)cc2)[C@@H](C)CN1C(=O)c1cc2c(C(=O)C(=O)N3CCOCC3)cn(C)c2cc1Cl [Compound 96] | exhibit p38 MAP kinase activity

The molecules below were run on ET-1 mRNA in HPBMCs (assay: ET-1 gene expression in HPBMCs, real-time PCR). Conditions: 10 μg/ml CRP added to 10% FCS, HPBMCs, 6 hours.
Type: cell-based, human
Method: 5×10^6 HPBMCs were plated in 6-well. After 1 hour medium was removed and cells were treated with vehicle or 1 μM P38 INHIBITOR in RPMI 1640 medium. After 1 hour cells were stimulated with 10% FCS only or 10 μg/ml CRP plus 10% FCS. After 6 hours RNA was extracted from the cells and ET-1 gene expression level was determined by real-time PCR as described in the Experimental section.
Cryopreserved human peripheral blood monocytes (HPBMCs, from Biowitker, Walkersvill, Md.) were thawed and washed twice in RPMI 1640. Cells were plated in tissue culture plates and incubated in 5% CO2 at 37 C. After 1 hr media were removed and cells were treated with various treatments. After 2 to 20 hours conditioned media and/or cell lysates were collected for the analyses of secreted cytokines, protein or mRNA expression. 10 μg/ml of purified human CRP (Calbiochem, San Diego, Calif.) was used in most of the treatments. In some experiments fetal calf serum (FCS from ATCC) was added to a final concentration of 10% together with CRP. In the examples provided herein, including those assessing the effects of p38 antagonism, cells were pre-treated with SD, a p38 small molecule inhibitor (Compound 162 in Table A) for 1 hour prior to CRP treatment as described above. In a parallel series of experiments, the effect of vehicle (DMSO) was tested. For TaqMan analyses of various gene expression cells were lysed in ice-cold RLT lysis buffer (Qiagen, Valencia, Calif.) and the lysates were kept in −80° C. until the analyses. […]
RNA was extracted from the cells using Qiagen RNA extraction kit according to the manufacturer's instruction. The expression of pro-inflammatory genes IL-1β, IL-6, IL-8, TNFα, COX-2, ET-1, TF were assessed by real-time PCR. […]
Real-time RT-PCR was performed in a two-step manner. cDNA synthesis and real-time detection were carried out in a PTC-100™ Thermal Cycler (MJ Research Inc, Waltham, Mass.) and an ABI Prism™ 7700 Sequence Detection System (Applied Biosystems, Foster City, Calif.), respectively. […] Relative quantitation of gene expression was performed using the relative standard curve method. […]

Row | Molecule | augmentation of ET-1 gene expression
11 | B1 | 1.7 fold
